Laboratory results taken from US20090324624A1, “Chitin micro-particles as an adjuvant” (priority 2006, published 2009).

How the values were obtained:
Format in all cases: cell-based, mouse
[1] = tested on: IL-10 mRNA; test: IL-10 mRNA expression in RAW264.7 MØ (RT-PCR)
[2] = tested on: F4/80; test: Surface expression of MØ antigens, cytometry: F4/80; details: 5 mM MBCD, 1 hr at 37°
[3] = tested on: Mac-1
[4] = tested on: Fcγ receptor II/III (FcγR); test: Surface expression of MØ antigens, cytometry: FcγR; details: 5 mM MBCD, 1 hr at 37°
Description: For evaluation of phagocytosis, MØ were incubated with 100 μg/ml FITC-chitin particles at 37° C. for 20 or 40 min. Fluorescence of unphagocytosed FITC-chitin was quenched with 50 mM acetate-buffered saline (pH 4.5) containing 2 mg/ml trypan blue, and the fluorescence intensity of MØ with intracellular FITC-chitin particles was measured cytometrically. The presence of intracellular FITC-chitin particles was further confirmed by fluorescence microscopy (Provis AX70 Microscope with MagnaFire, Olympus, Center Valley, Pa.). Expression of F4/80, Mac-1, FcγR, SR-A, TLR4, or MR on MØ was determined cytometrically.
The effect of cholesterol depletion on expression of the selected MØ surface antigens F4/80, Mac-1, FcγR, SR-A, TLR4, and MR was determined. […] The expression of TLR4 and MR were not altered by MBCD. The values for mean fluorescence intensity were consistent with the effects of MBCD on the expression of MØ antigens (Table 3). Therefore, MBCD at 5 mM or less was used for further experiments. All studies of chitin stimulation in the presence of MBCD were terminated within 6 h.

[5] = tested on: scavenger receptor A (SR-A); test: Surface expression of MØ antigens, cytometry: SR-A; details: 5 mM MBCD, 1 hr at 37°
[6] = tested on: Toll-like receptor 4 (TLR4); test: Surface expression of MØ antigens, cytometry: TLR4; details: 5 mM MBCD, 1 hr at 37°; 2nd antibody control 7.0
[7] = tested on: mannose receptor (MR); test: Surface expression of MØ antigens, cytometry: MR; details: 5 mM MBCD, 1 hr at 37°; 2nd antibody control 7.0
[8] = tested on: RAW 264.7 MØ; test: Cell-surface binding of FITC-chitin particles; details: MBCD-treated vs saline-treated MØ
Description: For chitin binding and phagocytosis assays, 1-10 μm chitin particles were labeled with fluorescein isothiocyanate (FITC). Particles (10 mg) and FITC (0.1 mg) were mixed and incubated in 0.1 M NaHCO3 at 22° C. for 2 h. Glycine (final 1 M) was added to bind free FITC, after which labeled particles were washed and suspended in saline at 10 mg/ml. To assess cell-surface binding of chitin, MØ were incubated with 100 μg/ml FITC-chitin particles on ice for 30 min. Free particles were removed by washing three times, and cellular fluorescence was measured cytometrically (BD FACSCalibur system with CELL Quest™ acquisition plus analysis program; Becton-Dickinson Immunocytometry Systems, San Jose, Calif.). To confirm that MØ binding to chitin particles was not altered by FITC, an excess of unlabeled particles (1,000 μg/ml) was used to compete with FITC-chitin.
It was also determined whether cholesterol depletion modifies MØ binding and internalization of FITC-chitin microparticles. […] Internalization of FITC-chitin particles at 37° C. was analyzed following quenching of unphagocytosed FITC-chitin. The magnitude of phagocytosis is similar for MBCD- and saline-treated MØ at 20 min: 12 and 12%, respectively.

[9] = tested on: RAW 264.7 MØ; test: TNF-α production by MBCD- or saline-treated MØ (ELISA); details: for increase in TNF-α production in response to chitin particles: 1 mM MBCD
[10] = tested on: COX-2; test: COX-2 expression and PGE2 release by MBCD- or saline-treated MØ
[11] = tested on: chitin phagosome-associated p38 and ERK1/2; test: Phagosomal (chitin particle-associated) MAPK phosphorylation; details: 10, 20 and 40 min
Description: FIG. 14 is a series of photographs of gels showing Phagosomal localization of MAPK proteins. MBCD- and saline-treated MØ were stimulated with 100 μg/ml 1-10 μm chitin particles at 37° C. for 10, 20 or 40 min. Chitin particle-associated proteins were isolated and extracted as described in Example 3. Particle-associated proteins derived from 2×10^6 MØ as well as whole cell proteins were separated on SDS-11% polyacrylamide gel and electroblotted to PVDF membrane. The data shown are representative of two independent experiments.
MBCD- or saline-treated MØ (2×10^6/ml) were stimulated with 100 μg/ml 1-10 μm chitin particles at 37° C. for 10, 20, or 40 min, washed with saline, suspended in homogenization buffer (50 mM Tris-HCl, pH 7.5, 0.32 M sucrose, 10 mM NaF, 1 mM Na3VO4, 5 mM EDTA, 1:500 protease inhibitor cocktail [Sigma]), and homogenized by sonication (20 s). […] Total and phosphorylated p38 and ERK1/2 as well as lysosome-associated membrane protein-1 (LAMP-1) were detected by western blotting with specific antibodies as described above. […]
The extent of phosphorylation of MAPK associated with intracellular chitin particles in MBCD-treated and saline-treated MØ was determined. […] MAPKs p38 and ERK1/2 and the respective phosphorylated forms were detected in the particle-associated fractions at 10, 20 and 40 min (FIG. 14). […] Phosphorylated JNK was not detected in the particle-associated fraction.

Mac-1, sequence (P05555 17-1153): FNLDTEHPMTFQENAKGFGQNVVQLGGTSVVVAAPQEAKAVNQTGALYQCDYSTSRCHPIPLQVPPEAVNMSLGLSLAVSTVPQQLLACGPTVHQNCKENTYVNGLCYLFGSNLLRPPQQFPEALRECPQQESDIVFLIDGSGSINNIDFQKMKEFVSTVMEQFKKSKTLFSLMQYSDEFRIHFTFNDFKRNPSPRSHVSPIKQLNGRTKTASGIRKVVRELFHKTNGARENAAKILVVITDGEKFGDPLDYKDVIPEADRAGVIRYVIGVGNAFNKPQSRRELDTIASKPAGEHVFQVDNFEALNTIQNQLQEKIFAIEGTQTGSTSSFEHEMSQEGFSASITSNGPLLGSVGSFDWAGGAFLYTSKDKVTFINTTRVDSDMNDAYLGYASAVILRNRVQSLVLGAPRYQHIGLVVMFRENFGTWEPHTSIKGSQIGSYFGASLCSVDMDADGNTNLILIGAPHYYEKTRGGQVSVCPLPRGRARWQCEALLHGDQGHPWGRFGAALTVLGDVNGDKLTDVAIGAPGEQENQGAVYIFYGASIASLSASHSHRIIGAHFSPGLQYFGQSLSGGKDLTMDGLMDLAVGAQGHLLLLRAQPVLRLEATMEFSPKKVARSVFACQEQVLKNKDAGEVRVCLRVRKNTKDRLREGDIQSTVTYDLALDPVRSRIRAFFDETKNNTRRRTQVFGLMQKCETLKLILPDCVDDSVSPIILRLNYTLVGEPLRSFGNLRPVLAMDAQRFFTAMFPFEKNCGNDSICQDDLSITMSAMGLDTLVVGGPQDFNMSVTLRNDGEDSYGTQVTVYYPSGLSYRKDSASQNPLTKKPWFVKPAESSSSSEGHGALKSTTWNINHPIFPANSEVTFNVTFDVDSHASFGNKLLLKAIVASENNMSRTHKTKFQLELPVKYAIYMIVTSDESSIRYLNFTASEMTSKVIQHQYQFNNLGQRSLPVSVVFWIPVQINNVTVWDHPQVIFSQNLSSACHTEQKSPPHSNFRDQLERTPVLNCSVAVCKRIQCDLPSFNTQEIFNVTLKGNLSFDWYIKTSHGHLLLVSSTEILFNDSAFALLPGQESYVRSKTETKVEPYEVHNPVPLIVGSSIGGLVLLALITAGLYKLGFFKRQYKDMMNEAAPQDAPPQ

methyl-β-cyclodextrin [MBCD]
CpG-ODN-induced IL-10 mRNA after MBCD treatment [1]: not increased
chitin particle-induced IL-10 mRNA expression after MBCD treatment ([1]; 6 h): did not result in IL-10 mRNA expression
% positive cells in M1, F4/80 [2]: 69%
MFI, F4/80 ([2]; 2nd antibody control 7.0): 17
% positive cells in M1, Mac-1 [3]: 81%
MFI, Mac-1 [3]: 36
% positive cells in M1, FcγR [4]: 65%
MFI, FcγR ([4]; 2nd antibody control 7.0): 14
% positive cells in M1, SR-A [5]: 81%
MFI, SR-A ([5]; 2nd antibody control 7.0): 32
MFI, TLR4 [6]: 23
MFI, MR [7]: 73
effect of MBCD treatment on MØ binding to FITC-chitin particles [8]: not significantly altered
increase in TNF-α production in response to chitin particles ([9]; 20 μg/ml chitin particles): 3 fold
increase in TNF-α production in response to chitin particles ([9]; 100 μg/ml chitin particles): 1.8 fold
TNF-α production, MBCD alone ([9]; 5 mM MBCD): enhanced slightly but significantly
CpG-ODN-induced COX-2 expression or PGE2 release ([10]; 1 mM MBCD): did not enhance
COX-2 expression, MBCD alone ([10]; 5 mM MBCD): induced
PGE2 release vs MØ treated with saline ([10]; 5 mM MBCD): not different
relative amounts of chitin-associated phosphorylated MAPK, MBCD- vs saline-treated cells (FIG. 14) [11]: greater
